According to ChEMBL document CHEMBL5532735, “Novel Furopyridine and Furopyrimidine Compounds as PI4K Inhibitors for Treating Malaria and Viral Infection” (ACS Med Chem Lett, 2024):

tested on: Plasmodium falciparum; test: Antimalarial activity against Plasmodium falciparum assessed as inhibition of parasite growth by [3H]hypoxanthine incorporation assay; type: functional, organism-based

Compound	IC50
CC(C)(O)c1cc(-c2ccnc3cc(-c4ccc(S(C)(=O)=O)cc4)oc23)ccn1	< 10 nM
CC(C)(O)c1cccc(-c2ncnc3cc(-c4ccc(S(C)(=N)=O)cc4)oc23)c1F (stereo unspecified)	< 10 nM
CS(=O)(=O)c1ccc(-c2cc3nccc(-c4cccc(C5(O)CCC5)c4)c3o2)cc1	< 10 nM
CC(C)(O)c1cccc(-c2ncnc3cc(-c4ccc(S(C)(=O)=O)cc4)oc23)c1F	< 10 nM
Cn1cc(-c2cc3nccc(-c4cccc(S(C)(=O)=O)c4)c3o2)ccc1=O	< 10 nM
CS(=O)(=O)c1ccc(-c2cc3nccc(-c4cccc(C5(O)CCC(F)(F)CC5)c4)c3o2)cn1	< 10 nM
